{"source": "patent US20050026949A1", "about": "“Methods of therapeutic treatment using amounts of retinoids without regard to body weight” (Allergan, Inc., priority 2003, published 2005)", "key": {"patients": {"tested_on": "patients", "assay": "Two placebo-controlled 24-week safety studies of oral tazarotene plus dose-response evaluations (Example 3)", "type": "in vivo, human", "protocol": "Two multicenter, double-blind, randomized, placebo-controlled 24-week studies of identical design are conducted to evaluate the safety of oral tazarotene. In addition, 16- to 24-week dose-response evaluations are performed.\nIn the two safety trials, the incidence of adverse side effects with a 4.5 mg dose administered orally once daily is compared to the incidence of the same side effects with a placebo. […] The majority of these were mild in severity and typical of adverse effects associated with oral retinoids."}, "[1]": {"tested_on": "patient with severe psoriasis", "assay": "Patient with severe psoriasis taking Ortho-Novum treated with tazarotene (Example 9)", "type": "in vivo, human", "description": "The patient presents symptoms of severe psoriasis. The symptoms include lesions approximately 4 to 10 centimeters across appearing as raised patches of wine red skin many of which are covered in silvery white scales. The lesions are mostly dry and rough, and quite often noticeably warm to the touch. The lesions are present on the elbows, knees, scalp, and groin area. The patient experiences intense burning and itching associated with the lesions.\nThe patient is currently taking Ortho-Novum® for contraception.\nTazarotene at a dose of 6 mg per day is prescribed."}, "AP1": {"tested_on": "AP1", "assay": "AP1 antagonism"}, "[2]": {"tested_on": "patients with moderate to very severe plaque psoriasis", "assay": "Open-label extension study of oral tazarotene (Example 4)", "type": "in vivo, human", "protocol": "Two multicenter, double-blind, placebo-controlled studies ware conducted to evaluate the efficacy and safety of oral tazarotene (4.5 mg once daily) in patients with moderate to very severe plaque psoriasis. […] Efficacy evaluations include overall lesional assessment (OLA), percent body surface area involvement, global response to treatment, plaque elevation, scaling, and erythema. OLA is graded on a 6-point scale (0=none, 1=minimal, 2=mild, 3=moderate, 4=severe, 5=very severe)."}, "[3]": {"tested_on": "patients having nodulocystic acne", "assay": "Two placebo-controlled dose-ranging safety studies of oral tazarotene (Example 5)", "type": "in vivo, human", "conditions": "for incidence of joint disorder: placebo 0%; for incidence of arthralgia: placebo 6%; for incidence of myalgia: placebo 9%; for incidence of asthenia: placebo 13%; for incidence of dry skin: placebo 19%; for incidence of headache: placebo 28%; for incidence of cheilitis: placebo 31%; for depression: placebo 1 (2%); for emotional lability (all cases mild): placebo 2 (4%)", "protocol": "Two placebo-controlled dose-ranging studies are conducted to evaluate the safety of oral tazarotene in patients having nodulocystic acne. In the first study, patients receive orally administered tazarotene at daily doses of 0.4 mg to 2.8 mg in 96 (71+25) patients (12 weeks treatment plus 12 weeks post-treatment). In the second study, daily doses of 0.75 mg to 6 mg tazarotene are administered to 181 patients (24 weeks treatment plus 12 weeks post-treatment)."}, "[4]": {"conditions": "4.5 mg orally once daily, placebo 0%"}, "[5]": {"conditions": "4.5 mg orally once daily, placebo 1%"}, "[6]": {"conditions": "4.5 mg orally once daily, placebo 2%"}, "[7]": {"conditions": "4.5 mg orally once daily, placebo 3%"}, "[8]": {"conditions": "4.5 mg orally once daily, placebo 8%"}, "[9]": {"conditions": "4.5 mg orally once daily, placebo <1%"}, "[10]": {"conditions": "4.5 mg once daily, 12-week extension treatment period, both groups"}, "[11]": {"conditions": "4.5 mg once daily, extension study"}}}
{"smiles": "CCOC(=O)c1ccc(C#Cc2ccc3c(c2)C(C)(C)CCS3)nc1", "note": "[tazarotene]", "values": [{"measurement": "incidence of patients discontinuing due to adverse effects", "setting": "patients; 4.5 mg (n=348)", "value": 3, "unit": "%"}, {"measurement": "incidence of ocular, auditory, or thyroid problems", "setting": "patients; 4.5 mg orally once daily vs placebo", "value": "no statistically significant between-group difference"}, {"measurement": "incidence of agitation", "setting": "patients; [4]", "value": "< 1", "unit": "%"}, {"measurement": "incidence of dermatitis", "setting": "patients; [4]", "value": 1, "unit": "%"}, {"measurement": "incidence of hyperglycemia", "setting": "patients; [4]", "value": 2, "unit": "%"}, {"measurement": "incidence of foot pain", "setting": "patients; [5]", "value": 3, "unit": "%"}, {"measurement": "incidence of joint disorder", "setting": "patients; [5]", "value": 4, "unit": "%"}, {"measurement": "incidence of nasal dryness", "setting": "patients; [5]", "value": 4, "unit": "%"}, {"measurement": "incidence of rash", "setting": "patients; [5]", "value": 3, "unit": "%"}, {"measurement": "incidence of altered hormone levels (elevated TSH and T4, decreased T4, abnormal thyroid function test)", "setting": "patients; [6]", "value": 0, "unit": "%"}, {"measurement": "incidence of depression", "setting": "patients; [6]", "value": 1, "unit": "%"}, {"measurement": "incidence of back pain", "setting": "patients; [7]", "value": 7, "unit": "%"}, {"measurement": "incidence of emotional lability", "setting": "patients; [7]", "value": 3, "unit": "%"}, {"measurement": "incidence of arthralgia", "setting": "patients; [8]", "value": 17, "unit": "%"}, {"measurement": "incidence of myalgia", "setting": "patients; [8]", "value": 14, "unit": "%"}, {"measurement": "incidence of headache", "setting": "patients; 4.5 mg orally once daily, placebo 12%", "value": 19, "unit": "%"}, {"measurement": "incidence of dry skin", "setting": "patients; 4.5 mg orally once daily, placebo 15%", "value": 24, "unit": "%"}, {"measurement": "incidence of cheilitis", "setting": "patients; 4.5 mg orally once daily, placebo 17%", "value": 66, "unit": "%"}, {"measurement": "incidence of anxiety", "setting": "patients; [9]", "value": 1, "unit": "%"}, {"measurement": "incidence of psychosis", "setting": "patients; [9]", "value": 0, "unit": "%"}, {"measurement": "incidence of psychotic depression", "setting": "patients; [9]", "value": 0, "unit": "%"}, {"measurement": "incidence of patients discontinuing due to adverse effects", "setting": "patients; 6.3 mg (n=16)", "value": 13, "unit": "%"}, {"measurement": "incidence of patients discontinuing due to adverse effects", "setting": "patients; 0.4 to 1.1 mg oral tazarotene (n=105)", "value": "approximately 2%"}, {"measurement": "incidence of patients discontinuing due to adverse effects", "setting": "patients; 2.1 to 2.8 mg oral tazarotene (n=21)", "value": 10, "unit": "%"}, {"measurement": "incidence of patients discontinuing due to adverse effects", "setting": "patients; w.2 mg (n=14)", "value": 0, "unit": "%"}, {"measurement": "psoriasis symptoms and lesions", "setting": "[1]; 6 mg per day, after 30 days", "value": "symptoms of itching and burning are relieved and the severity of their lesions are substantially lessened"}, {"measurement": "serum FSH and LH levels", "setting": "[1]; tazarotene 6 mg per day with Ortho-Novum", "value": "remain within the normal ranges"}, {"measurement": "AP1 antagonism", "setting": "AP1", "value": "potent AP1 antagonist"}, {"measurement": "incidence of arthralgia", "setting": "[2]; [10]", "value": 20, "unit": "%"}, {"measurement": "incidence of cheilitis", "setting": "[2]; [10]", "value": 70, "unit": "%"}, {"measurement": "incidence of dry skin", "setting": "[2]; [10]", "value": 25, "unit": "%"}, {"measurement": "incidence of hypertriglyceridemia", "setting": "[2]; [10]", "value": 6, "unit": "%"}, {"measurement": "patients with clinical success (2-grade reduction in OLA)", "setting": "[2]; 4.5 mg once daily, end of the 12-week treatment period", "value": 28, "unit": "%"}, {"measurement": "changes in liver function test values or cholesterol levels", "setting": "[2]; [11]", "value": "no clinically significant changes"}, {"measurement": "serious adverse events", "setting": "[2]; [11]", "value": "no serious adverse events considered related to the study treatment"}, {"measurement": "patients with clinical success (2-grade reduction in OLA)", "setting": "[2]; end of the 12-week post-treatment period", "value": 16, "unit": "%"}, {"measurement": "changes in urinalysis, chemistry, or hematology measures (including liver function tests, triglycerides, total cholesterol, HDL cholesterol)", "setting": "[3]; 0.4 mg to 6 mg daily", "value": "no consistent dose-related clinically significant changes"}, {"measurement": "ligament calcification, osteophyte formation, or changes in serum bone alkaline phosphatase, serum amino terminal telopeptides, or bone density", "setting": "[3]; 0.4 mg to 6 mg daily", "value": "not associated with any clinically significant"}, {"measurement": "patients withdrawing due to adverse events", "setting": "[3]; 0.75 mg", "value": 2, "unit": "patients"}, {"measurement": "incidence of joint disorder", "setting": "[3]; 2.8 mg, n=11", "value": 27, "unit": "%"}, {"measurement": "incidence of arthralgia", "setting": "[3]; 2.8 mg, n=11", "value": 9, "unit": "%"}, {"measurement": "incidence of myalgia", "setting": "[3]; 2.8 mg, n=11", "value": 0, "unit": "%"}, {"measurement": "incidence of asthenia", "setting": "[3]; 2.8 mg, n=11", "value": 0, "unit": "%"}, {"measurement": "incidence of dry skin", "setting": "[3]; 2.8 mg, n=11", "value": 18, "unit": "%"}, {"measurement": "incidence of headache", "setting": "[3]; 2.8 mg, n=11", "value": 9, "unit": "%"}, {"measurement": "incidence of cheilitis", "setting": "[3]; 2.8 mg, n=11", "value": 64, "unit": "%"}, {"measurement": "patients withdrawing due to adverse events", "setting": "[3]; 3 mg", "value": 2, "unit": "patients"}, {"measurement": "cheilitis, mild", "setting": "[3]; 3 mg group", "value": 25, "unit": "patients"}, {"measurement": "cheilitis, moderate", "setting": "[3]; 3 mg group", "value": 3, "unit": "patients"}, {"measurement": "cheilitis, severe", "setting": "[3]; 3 mg group", "value": 1, "unit": "patient"}, {"measurement": "dry skin, mild", "setting": "[3]; 3 mg group", "value": 11, "unit": "patients"}, {"measurement": "dry skin, moderate", "setting": "[3]; 3 mg group", "value": 2, "unit": "patient"}, {"measurement": "depression", "setting": "[3]; 3 mg group (2 mild, 1 severe)", "value": "3 (8%) patients (%)"}, {"measurement": "emotional lability (all cases mild)", "setting": "[3]; 3 mg group", "value": "1 (3%) patient (%)"}, {"measurement": "incidence of joint disorder", "setting": "[3]; 3 mg, n=37", "value": 14, "unit": "%"}, {"measurement": "incidence of arthralgia", "setting": "[3]; 3 mg, n=37", "value": 8, "unit": "%"}, {"measurement": "incidence of myalgia", "setting": "[3]; 3 mg, n=37", "value": 16, "unit": "%"}, {"measurement": "incidence of asthenia", "setting": "[3]; 3 mg, n=37", "value": 19, "unit": "%"}, {"measurement": "incidence of dry skin", "setting": "[3]; 3 mg, n=37", "value": 35, "unit": "%"}, {"measurement": "incidence of headache", "setting": "[3]; 3 mg, n=37", "value": 19, "unit": "%"}, {"measurement": "incidence of cheilitis", "setting": "[3]; 3 mg, n=37", "value": 78, "unit": "%"}, {"measurement": "patients withdrawing due to adverse events", "setting": "[3]; 6 mg", "value": 1, "unit": "patients"}, {"measurement": "cheilitis, mild", "setting": "[3]; 6 mg group", "value": 27, "unit": "patients"}, {"measurement": "cheilitis, moderate", "setting": "[3]; 6 mg group", "value": 6, "unit": "patients"}, {"measurement": "cheilitis, severe", "setting": "[3]; 6 mg group", "value": 1, "unit": "patient"}, {"measurement": "dry skin, mild", "setting": "[3]; 6 mg group", "value": 17, "unit": "patients"}, {"measurement": "dry skin, moderate", "setting": "[3]; 6 mg group", "value": 1, "unit": "patient"}, {"measurement": "depression", "setting": "[3]; 6 mg group", "value": "none"}, {"measurement": "emotional lability (all cases mild)", "setting": "[3]; 6 mg group", "value": "5 (14%) patient (%)"}, {"measurement": "incidence of joint disorder", "setting": "[3]; 6 mg, n=36", "value": 19, "unit": "%"}, {"measurement": "incidence of arthralgia", "setting": "[3]; 6 mg, n=36", "value": 28, "unit": "%"}, {"measurement": "incidence of myalgia", "setting": "[3]; 6 mg, n=36", "value": 25, "unit": "%"}, {"measurement": "incidence of asthenia", "setting": "[3]; 6 mg, n=36", "value": 19, "unit": "%"}, {"measurement": "incidence of dry skin", "setting": "[3]; 6 mg, n=36", "value": 50, "unit": "%"}, {"measurement": "incidence of headache", "setting": "[3]; 6 mg, n=36", "value": 36, "unit": "%"}, {"measurement": "incidence of cheilitis", "setting": "[3]; 6 mg, n=36", "value": 94, "unit": "%"}, {"measurement": "patients withdrawing from either study due to adverse events", "setting": "[3]; 7/277, all groups incl. placebo", "value": 2.5, "unit": "%"}, {"measurement": "dry skin, severe", "setting": "[3]; all groups", "value": "No patient has severe dry skin"}]}
